# In US20120065187A1 (ALCON RESEARCH, LTD, priority 2008, published 2012):
# Where a name gives a salt, the structure may show the parent alone. Read-outs that look alike come from different tables or passages of the source.
# Columns and labels:
# [1] = target: T1, human H4 (Homo sapiens, UniProt Q9H3N8); assay: In vitro histamine receptor cell-based assay (aequorin bioluminescence), H4 antagonism
# T1 construct: host or cells: CHO-K1
# How it was run: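 CHO-K1 cells stably expressing human H4, Gα16 and mitochondrial aequorin, loaded with 5 μM coelenterazine-h, preincubated 15 min at room temperature with compound, then challenged with histamine at EC80.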
# [2] = target: T2, human H1 (Homo sapiens, UniProt P35367); assay: In vitro histamine receptor cell-based assay (aequorin bioluminescence), H1 antagonism; settings: CHO-K1 cells expressing human H1 and aequorin; histamine at EC80; read-out: H1 Antagonist EC50
# T2 construct: host or cells: CHO-K1
# Procedure: The cell-based assays utilize an aequorin dependent bioluminescence signal. Doubly-transfected, stable CHO-K1 cell lines expressing human H1 or H4, mitochondrion-targeted aequorin, and (H4 only) human G protein Gα16 are obtained from Perkin-Elmer. Cells are maintained in F12 (Ham's) growth medium, containing 10% (vol./vol.) fetal bovine serum, penicillin (100 IU/mL), streptomycin (0.1 mg/mL), zeocin (0.25 mg/mL) and geneticin (0.40 mg/mL). Cell media components are from Invitrogen, Inc. One day prior to assay, the growth medium is replaced with the same, excluding zeocin and geneticin.
# For assay preparation, growth medium is aspirated, and cells are rinsed with calcium-free, magnesium-free phosphate-buffered saline, followed by two to three minute incubation in Versene (Invitrogen, Inc.) at 37° C. Assay medium (DMEM:F12 [50:50], phenol-red free, containing 1 mg/mL protease-free bovine serum albumin) is added to collect the released cells, which are then centrifuged. The cell pellet is re-suspended in assay medium, centrifuged once more, and re-suspended in assay medium to a final density of 5×10^6 cells/mL. Coelenterazine-h dye (500 μM in ethanol) is added to a final concentration of 5 μM, and mixed immediately. The conical tube containing the cells is then wrapped with foil to protect the light-sensitive dye. The cells are incubated for four hours further at room temperature (approximately 21° C.) with end-over-end rotation to keep them in suspension.
# Just before assay, the dye-loaded cells are diluted to 0.75×10^6 cells/mL (H1 receptor) or 1.5×10^6 cells/mL (H4 receptor) with additional assay medium. Cells are dispensed to 1536 well micro-titer plates at 3 μL/well. To assay receptor antagonism, 60 nl of 100× concentration test compounds in 100% dimethyl sulfoxide (DMSO) are dispensed to the wells, one compound per well, by passive pin transfer, and the plates are incubated for 15 minutes at room temperature. Assay plates are then transferred to a Lumilux bioluminescence plate reader (Perkin-Elmer) equipped with an automated 1536 disposable tip pipette. The pipette dispenses 3 μL/well of agonist (histamine, at twice the final concentration, where final concentration is a previously determined EC80) in assay medium, with concurrent bioluminescence detection. Agonist activity of test compounds is excluded by separate assays that measure response to test compounds immediately, without added histamine agonist.
# CCD image capture on the Lumilux includes a 5 second baseline read prior to agonist addition, and generally a 40 second read per plate after agonist addition. A decrease in bioluminescence signal (measured either as area-under-the-curve, or maximum signal amplitude minus minimum signal amplitude) correlates with receptor antagonism in a dose dependent manner. The negative control is DMSO lacking any test compound. For antagonist assays, the positive controls are diphenhydramine (2-Diphenylmethoxy-N,N-dimethylethylamine, 10 μM final concentration, H1 receptor) or JNJ7777120 (1-[(5-Chloro-1H-indol-2-yl)carbonyl]-4-methyl-piperazine, 10 μM final concentration, H4 receptor). Efficacy is measured as a percentage of positive control activity.
# [3] = CHO-K1 cells expressing human H4, aequorin and Gα16, histamine at EC80, read-out: H4 Antagonist EC50
# T2 sequence (P35367 whole entry): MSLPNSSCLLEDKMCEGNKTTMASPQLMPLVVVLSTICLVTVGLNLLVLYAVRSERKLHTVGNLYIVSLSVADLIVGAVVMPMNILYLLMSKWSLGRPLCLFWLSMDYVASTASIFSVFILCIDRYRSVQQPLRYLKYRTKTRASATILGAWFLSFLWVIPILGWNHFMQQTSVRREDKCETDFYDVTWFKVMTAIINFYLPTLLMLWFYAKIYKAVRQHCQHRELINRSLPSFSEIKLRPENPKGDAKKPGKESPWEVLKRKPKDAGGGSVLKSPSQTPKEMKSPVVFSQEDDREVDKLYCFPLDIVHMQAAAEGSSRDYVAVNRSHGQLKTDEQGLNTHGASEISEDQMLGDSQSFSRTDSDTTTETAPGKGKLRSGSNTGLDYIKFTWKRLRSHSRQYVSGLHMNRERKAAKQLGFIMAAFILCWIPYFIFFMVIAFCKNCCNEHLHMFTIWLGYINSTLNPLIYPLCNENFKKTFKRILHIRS
# T1 sequence (Q9H3N8 whole entry): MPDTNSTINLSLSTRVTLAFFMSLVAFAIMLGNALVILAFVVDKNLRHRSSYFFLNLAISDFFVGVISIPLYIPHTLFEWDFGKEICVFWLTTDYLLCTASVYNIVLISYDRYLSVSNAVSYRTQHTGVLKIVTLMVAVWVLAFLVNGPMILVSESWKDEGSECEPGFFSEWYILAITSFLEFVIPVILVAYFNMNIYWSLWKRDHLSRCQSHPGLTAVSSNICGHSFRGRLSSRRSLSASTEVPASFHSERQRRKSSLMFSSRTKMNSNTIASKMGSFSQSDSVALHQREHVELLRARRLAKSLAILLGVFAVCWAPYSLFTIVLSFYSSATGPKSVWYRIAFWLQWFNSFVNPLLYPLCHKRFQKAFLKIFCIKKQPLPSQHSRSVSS
Structure (SMILES),"EC50 [1, 3] [µM]",EC50 [2] [µM],EC50 [1] [µM]
"CN1CCN(c2nc3cc(F)c(C(F)(F)F)cc3n3nnnc23)CC1 [Example 187, 7-fluoro-4-(4-methylpiperazin-1-yl)-8-(trifluoromethyl)tetrazolo[1,5-a]quinoxaline]",< 10,> 10,
"CN1CCN(c2nc3cc(Cl)ccc3n3nnnc23)CC1 [Example 17, 7-Chloro-4-(4-methylpiperazin-1-yl)tetrazolo[1,5-a]quinoxaline]",< 10,> 10,
"Clc1ccc2nc(NC3CCNCC3)c3nncn3c2c1 [Example 73, 8-chloro-N-(piperidin-4-yl)-[1,2,4]triazolo[4,3-a]quinoxalin-4-amine]",> 10,> 10,
"CN1CCN(c2nc3cc(C(F)(F)F)ccc3c3conc23)CC1 [Example 220, 4-(4-Methylpiperazinyl)-7-(trifluoromethyl)isoxazolo[3,4-c]quinoline]",< 10,> 10,
"Cn1cnc2c(N3CCNCC3)nc3ccc(Cl)cc3c21 [Example 158, 8-Chloro-1-methyl-4-(piperazin-1-yl)-1H-imidazo[4,5-c]quinoline]",> 10,> 10,
"Cc1nc2c3cc(F)c(F)cc3nc(N3CCNCC3)n2n1 [Example 98, 8,9-Difluoro-2-methyl-5-(piperazin-1-yl)-[1,2,4]triazolo[1,5-c]quinazoline]",< 10,> 10,
"CN1CCN(c2nc3cc(F)c(F)cc3n3ccnc23)CC1 [Example 181, 7,8-difluoro-4-(4-methylpiperazin-1-yl)imidazo[1,2-a]quinoxaline]",< 10,> 10,
"FC(F)(F)c1ccc2c(c1)nc(N1CCNCC1)c1nccn12 [Example 183, 4-(piperazin-1-yl)-7-(trifluoromethyl)imidazo[1,2-a]quinoxaline hydrochloride]",,> 10,> 10
"CN1CCN(c2nc3ccc(Cl)cc3c3ccsc23)CC1 [Example 149, 8-Chloro-4-(4-methylpiperazin-1-yl)thieno[2,3-c]quinoline]",< 10,< 10,
"Clc1ccc2nc(C3CCNCC3)c3nncn3c2c1 [Example 3, 8-Chloro-4-(piperidin-4-yl)-[1,2,4]triazolo[4,3-a]quinoxaline]",> 10,> 10,
"CN1CCN(c2nc3ccc(C(F)(F)F)cc3c3nc(C(F)(F)F)nn23)CC1 [Example 120, 5-(4-methylpiperazin-1-yl)-2,9-bis(trifluoromethyl)-[1,2,4]triazolo[1,5-c]quinazoline]",< 10,> 10,
"Cc1nc2c3cc(C(F)(F)F)cc(F)c3nc(N3CCNCC3)n2n1 [Example 128, 7-fluoro-2-methyl-5-(piperazin-1-yl)-9-(trifluoromethyl)-[1,2,4]triazolo[1,5-c]quinazoline hydrochloride]",< 10,> 10,
"Cc1nnc2c(N3CCNCC3)nc3ccc(Cl)cc3n12 [Example 85, 8-chloro-1-methyl-4-(piperazin-1-yl)-[1,2,4]triazolo[4,3-a]quinoxaline]",> 10,> 10,
"CN1CC=C(c2nc3ccc(Cl)cc3n3cnnc23)CC1 [Example 2, 8-Chloro-4-(1-methyl-1,2,3,6-tetrahydropyridin-4-yl)-[1,2,4]triazolo[4,3-a]quinoxaline]",< 10,> 10,
"Clc1ccc2nc(N3CC4CC3CN4)c3nncn3c2c1 (centres unmarked) [Example 67, 4-(2,5-diazabicyclo[2.2.1]heptan-2-yl)-8-chloro-[1,2,4]triazolo[4,3-a]quinoxaline]",< 10,> 10,
"CC(C)c1ccc2nc(N3CCN(C)CC3)c3nncn3c2c1 [Example 173, 8-isopropyl-4-(4-methylpiperazin-1-yl)-[1,2,4]triazolo[4,3-a]quinoxaline]",< 10,> 10,

Structure (SMILES),"EC50 [1, 3] [µM]",EC50 [2] [µM],EC50 [1] [µM]
"CN1CCN(c2nc3ccc(Cl)cc3c3ocnc23)CC1 [Example 141, 8-chloro-4-(4-methylpiperazin-1-yl)oxazolo[4,5-c]quinoline]",< 10,< 10,
"CCc1nc2c3cc(Cl)ccc3nc(N3CCN(C)CC3)n2n1 [Example 114, 9-Chloro-2-ethyl-5-(4-methylpiperazin-1-yl)-[1,2,4]triazolo[1,5-c]quinazoline]",< 10,> 10,
"CN1CCN(c2nc3cc(Br)ccc3n3nnnc23)CC1 [Example 195, 7-bromo-4-(4-methylpiperazin-1-yl)tetrazolo[1,5-a]quinoxaline]",< 10,> 10,
"C=Cc1ccc2nc(N3CCN(C)CC3)c3nncn3c2c1 [Example 88, 4-(4-methylpiperazin-1-yl)-8-vinyl-[1,2,4]triazolo[4,3-a]quinoxaline]",< 10,> 10,
"CN1CCN(C2=Nc3ccc(Cl)cc3N3CCN=C23)CC1 [Example 5, 8-Chloro-4-(4-methylpiperazin-1-yl)-1,2-dihydroimidazo[1,2-a]quinoxaline]",< 10,> 10,
"CC(C)(C)OC(=O)N1CCN(c2nc3ccc(Cl)cc3n3cnnc23)CC1 [Example 56, tert-butyl 4-(8-chloro-[1,2,4]triazolo[4,3-a]quinoxalin-4-yl)piperazine-1-carboxylate]",> 10,> 10,
"Cc1nc2c(N3CCN(C)CC3)nc3cc(F)c(Cl)cc3c2o1 [Example 216, 8-chloro-7-fluoro-2-methyl-4-(4-methylpiperazin-1-yl)oxazolo[4,5-c]quinoline]",< 10,> 10,
"CN1CCN(c2nc3ccc(Cl)cc3c3ccoc23)CC1 [Example 147, 8-Chloro-4-(4-methylpiperazin-1-yl)furo[2,3-c]quinoline]",< 10,> 10,
"Cc1nc2c3ccc(Cl)cc3nc(N3CCNCC3)n2n1 [Example 106, 8-Chloro-2-methyl-5-(piperazin-1-yl)-[1,2,4]triazolo[1,5-c]quinazoline]",< 10,> 10,
"CC1(C)CN(c2nc3ccc(Cl)cc3n3cnnc23)CCN1 [Example 82, 8-chloro-4-(3,3-dimethylpiperazin-1-yl)-[1,2,4]triazolo[4,3-a]quinoxaline]",< 10,> 10,
Cc1cc2c(cc1F)nc(N1CCNCC1)c1nncn12 [Example 35],> 10,> 10,
"CNC1CCN(c2nc3ccc(Cl)cc3n3cnnc23)C1 (centres unmarked) [Example 60, 1-(8-chloro-[1,2,4]triazolo[4,3-a]quinoxalin-4-yl)-N-methylpyrrolidin-3-amine]",< 10,> 10,
"Cc1nc2c3cc(Cl)c(Cl)cc3nc(N3CCNCC3)n2n1 [Example 94, 8,9-Dichloro-2-methyl-5-(piperazin-1-yl)-[1,2,4]triazolo[1,5-c]quinazoline]",< 10,> 10,
"CN1CCN(c2nc3cc(C(F)(F)F)c(F)cc3n3cnnc23)CC1 [Example 42, 8-fluoro-4-(4-methylpiperazin-1-yl)-7-(trifluoromethyl)-[1,2,4]triazolo[4,3-a]quinoxaline]",< 10,> 10,
"C[C@@H]1CN(c2nc3ccc(Cl)cc3n3cnnc23)C[C@H](C)N1 [Example 83, 8-chloro-4-((3S,5R)-3,5-dimethylpiperazin-1-yl)-[1,2,4]triazolo[4,3-a]quinoxaline]",> 10,> 10,
